According to patent publication US20080234262A1 (Wyeth, priority 2007, published 2008):

Assays:
breast line MDA468 = test: In vitro cell culture growth assay (MTS), MDA468; format: cell-based, human; conditions: MDA468 cells, three days after drug treatment
Summary of the method: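 MDA468 or LNCap cells received inhibitors one day after plating and were grown for three days. Viable cell density read by MTS conversion, absorbance 490 nm, expressed as percent of control growth versus vehicle-treated cells on the same plate.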

prostate line LNCap = test: In vitro cell culture growth assay (MTS), LNCap; format: cell-based, human; conditions: LNCap cells, three days after drug treatment

IC50 (prostate line LNCap; Homo sapiens, LNCaP, 72 h)	IC50 (prostate line LNCap)	SMILES	IC50 (breast line MDA468; Homo sapiens, 72 h)	IC50 (breast line MDA468)
1400 nM	–	O=CNc1ccc(-c2nc(N3CCOCC3)c3cnn(C4CCN(Cc5ccccc5)CC4)c3n2)cc1 [Compound 231, N-{4-[1-(1-benzylpiperidin-4-yl)-4-morpholin-4-yl-1H-pyrazolo[3,4-d]pyrimidin-6-yl]phenyl}formamide]	4500 nM	–
500 nM	–	COCC(=O)N1CCC(n2ncc3c(N4CCOCC4)nc(-c4cccc(O)c4)nc32)CC1 [Example 30]	1400 nM	–
1400 nM	–	N#CN=C(N)Nc1ccc(-c2nc(N3CCOCC3)c3cnn(C4CCN(Cc5cccnc5)CC4)c3n2)cc1 [Example 406, 2-cyano-1-(4-{4-morpholin-4-yl-1-[1-(pyridin-3-ylmethyl)piperidin-4-yl]-1H-pyrazolo[3,4-d]pyrimidin-6-yl}phenyl)guanidine]	1100 nM	–
380 nM	–	O=C(c1cccnc1)N1CCC(n2ncc3c(N4CCOCC4)nc(-c4ccc5[nH]ccc5c4)nc32)CC1 [Compound 38, 6-(1H-indol-5-yl)-4-morpholin-4-yl-1-[1-(pyridin-3-ylcarbonyl)piperidin-4-yl]-1H-pyrazolo[3,4-d]pyrimidine]	1100 nM	–
1400 nM	–	Oc1ccc(-c2nc(N3CCOCC3)c3cnn(C4CCN(Cc5ccccc5)CC4)c3n2)cc1 [Compound 486, 4-[1-(1-benzylpiperidin-4-yl)-4-morpholin-4-yl-1H-pyrazolo[3,4-d]pyrimidin-6-yl]phenol]	4000 nM	–
220 nM	–	Oc1cccc(-c2nc(N3CCOCC3)c3cnn(C4CCN(Cc5ccccc5)CC4)c3n2)c1 [Compound 8]	1900 nM	–
600 nM	–	COC(=O)Nc1ccc(-c2nc(N3CCOCC3)c3cnn(C4CCN(C(=O)c5ccc(C#N)cc5)CC4)c3n2)cc1 [Example 447, methyl (4-{1-[1-(4-cyanobenzoyl)piperidin-4-yl]-4-morpholin-4-yl-1H-pyrazolo[3,4-d]pyrimidin-6-yl}phenyl)carbamate]	1200 nM	–
3500 nM	–	Nc1cccc(-c2nc(N3CCOCC3)c3cnn(-c4ccccc4)c3n2)c1 [Compound 107]	10000 nM	–
4500 nM	–	CC(=O)N(C)c1ccc(-c2nc(N3CCOCC3)c3cnn(-c4ccccc4)c3n2)cc1 [Compound 149, N-methyl-N-[4-(4-morpholin-4-yl-1-phenyl-1H-pyrazolo[3,4-d]pyrimidin-6-yl)phenyl]acetamide]	40000 nM	–
20000 nM	–	c1ccc(-n2ncc3c(N4CCOCC4)nc(-c4csc5ccccc45)nc32)cc1 [Compound 7]	38000 nM	–
200 nM	–	O=C(c1cccnc1)N1CCC(n2ncc3c(N4CCOCC4)nc(-c4cccc(O)c4)nc32)CC1 [Compound 24, 3-{4-morpholin-4-yl-1-[1-(pyridin-3-ylcarbonyl)piperidin-4-yl]-1H-pyrazolo[3,4-d]pyrimidin-6-yl}phenol]	700 nM	–
10000 nM	–	COC(=O)Nc1ccc(-c2nc(N3CCOCC3)c3cnn(-c4ccccc4)c3n2)cc1 [Example 101, methyl [4-(4-morpholin-4-yl-1-phenyl-1H-pyrazolo[3,4-d]pyrimidin-6-yl)phenyl]carbamate]	22000 nM	–
< 27 nM	–	COC(=O)N1CCC(n2ncc3c(N4CCOCC4)nc(-c4ccc(NC(=O)Nc5ccncc5)cc4)nc32)CC1 [Compound 738, methyl 4-(4-morpholin-4-yl-6-{4-[(pyridin-4-ylcarbamoyl)amino]phenyl}-1H-pyrazolo[3,4-d]pyrimidin-1-yl)piperidine-1-carboxylate]	< 27 nM	–
70 nM	–	CNC(=S)Nc1ccc(-c2nc(N3CCOCC3)c3cnn(C4CCN(Cc5cccnc5)CC4)c3n2)cc1 [Example 377, 1-methyl-3-(4-{4-morpholin-4-yl-1-[1-(pyridin-3-ylmethyl)piperidin-4-yl]-1H-pyrazolo[3,4-d]pyrimidin-6-yl}phenyl)thiourea]	500 nM	–
3300 nM	–	c1cc2cc(-c3nc(N4CCOCC4)c4cnn([C@H]5CCCNC5)c4n3)ccc2[nH]1 [Compound 170, 6-(1H-indol-5-yl)-4-morpholin-4-yl-1-[(3S)-piperidin-3-yl]-1H-pyrazolo[3,4-d]pyrimidine]	12000 nM	–
–	> 60000 nM	Nc1cccc(-c2nc(N3CCOCC3)c3cnn(-c4ccccc4)c3n2)n1 [Compound 683, 6-(4-morpholin-4-yl-1-phenyl-1H-pyrazolo[3,4-d]pyrimidin-6-yl)pyridin-2-amine]	–	> 60000 nM
310 nM	–	COC(=O)Nc1ccc(-c2nc(N3CCOCC3)c3cnn(C4CCN(C(=O)OC)CC4)c3n2)cc1 [Compound 740, methyl 4-(6-{4-[(methoxycarbonyl)amino]phenyl}-4-morpholin-4-yl-1H-pyrazolo[3,4-d]pyrimidin-1-yl)piperidine-1-carboxylate]	1300 nM	–
80 nM	–	Nc1ncc(-c2nc(N3CCOCC3)c3cnn(C4CCN(Cc5ccccc5)CC4)c3n2)cn1 [Compound 191]	400 nM	–
140 nM	–	O=C(c1ccccc1)N1CCC(n2ncc3c(N4CCOCC4)nc(-c4cccc(O)c4)nc32)CC1 [Compound 25, 3-[1-(1-benzoylpiperidin-4-yl)-4-morpholin-4-yl-1H-pyrazolo[3,4-d]pyrimidin-6-yl]phenol]	700 nM	–
4900 nM	–	COCCC(=O)Nc1ccc(-c2nc(N3CCOCC3)c3cnn(-c4ccccc4)c3n2)cc1 [Compound 138]	6500 nM	–
2000 nM	–	c1ccc(-n2ncc3c(N4CCOCC4)nc(-c4ccc5[nH]ccc5c4)nc32)cc1 [Compound 110]	5500 nM	–
70 nM	–	CNC(=S)Nc1ccc(-c2nc(N3CCOCC3)c3cnn(C4CCN(Cc5cccnc5)CC4)c3n2)cc1 [Compound 622, 1-methyl-3-(4-{4-morpholin-4-yl-1-[1-(pyridin-3-ylmethyl)piperidin-4-yl]-1H-pyrazolo[3,4-d]pyrimidin-6-yl}phenyl)thiourea]	500 nM	–
3000 nM	–	CN1CCC(C(=O)Nc2ccc(-c3nc(N4CCOCC4)c4cnn(-c5ccccc5)c4n3)cc2)CC1 [Compound 141]	3800 nM	–
3400 nM	–	CN(C)CC(=O)Nc1ccc(-c2nc(N3CCOCC3)c3cnn(-c4ccccc4)c3n2)cc1 [Compound 135]	1200 nM	–
10000 nM	–	CN(C)C(=O)c1ccc(-c2nc(N3CCOCC3)c3cnn(C4CCN(Cc5ccccc5)CC4)c3n2)cc1 [Example 71]	13000 nM	–
16000 nM	–	Oc1ccc(-c2nc(N3CCOCC3)c3cnn(C4CCN(Cc5ccccc5)CC4)c3n2)cn1 [Compound 192]	40000 nM	–
450 nM	–	CC(=O)Nc1ccc(-c2nc(N3CCOCC3)c3cnn(C4CCN(Cc5ccccc5)CC4)c3n2)cc1 [Example 80, N-{4-[1-(1-benzylpiperidin-4-yl)-4-morpholin-4-yl-1H-pyrazolo[3,4-d]pyrimidin-6-yl]phenyl}acetamide]	2300 nM	–
750 nM	–	Cn1ncc2c(N3CCC(n4c(=O)[nH]c5ccccc54)CC3)nc(-c3ccccc3)nc21 [Example 12]	12000 nM	–
400 nM	–	COC(=O)Nc1ccc(-c2nc(N3CCOCC3)c3cnn(C4CCN(C(=O)OC)CC4)c3n2)cc1 [Compound 739, methyl 4-(6-{4-[(methoxycarbonyl)amino]phenyl}-4-morpholin-4-yl-1H-pyrazolo[3,4-d]pyrimidin-1-yl)piperidine-1-carboxylate]	1750 nM	–
